According to patent US9567384B2, “Phosphorylation on the Thr-248 and/or Thr-250 residues of transcription factor E2F4 as a therapeutic target in pathological processes associated with somatic polyploidy” (CONSEJO SUPERIOR DE INVESTIGACIONES CIENTIFICAS (CSIC), priority 2011, dated 2017):

What was measured:
[1] = test system: chick embryo retinal cell neurogenic cultures E6; assay: Incorporation of BrdU (entry into S phase) in chick embryo retinal cell neurogenic cultures E6; assay type: cell-based
Protocol: (§1) These cells respond to NGF by inducing cell cycle reactivation that leads to somatic tetraploidy (endoreduplication) (Morillo et al., 2010). A. Western blot with anti-active p38^MAPK (P-p38^MAPK) and anti-p38^MAPK in nuclear extracts of the mentioned neurogenic cultures treated for the indicated time with 100 ng/ml NGF. The normalized ratios between P-p38^MAPK and p38^MAPK levels are indicated at the bottom. B. Immunohistochemical staining with anti-active p38^MAPK antibodies (P-p38^MAPK) in the mentioned neurogenic cultures treated with 100 ng/ml NGF for 20 minutes. The nuclei were labeled with bisbenzimide (Bisb.). […] C. Luciferase assay in extracts of chick embryo retinal cell neurogenic cultures E6 transfected with a plasmid expressing luciferase under the control of cMyc gene promoter, known for its response to E2F during G1/S transition, and another plasmid with the constitutive expression of β-galactosidase. The luciferase/β-galactosidase ratio values are depicted as “luciferase activity”. […] This effect is blocked with selective p38^MAPK inhibitor SB203580 (used at 5 μM). D. Incorporation of BrdU to indicate entry into S phase in chick embryo retinal cell neurogenic cultures E6.
A. Luciferase activity analyzed as described in FIG. 2C. […] Based on the results shown in panels A and B, it is deduced that p38^MAPK acts exclusively through Thr261/Thr263 residues. C. Luciferase activity analyzed as described in FIG. 2C.

E2F4 = assay: Western blot with anti-phosphoThr antibodies in extracts immunoprecipitated with anti-E2F4 antibodies; assay type: cell-based, chick; details: 100 ng/ml NGF
cMyc gene promoter = assay: Luciferase assay, cMyc gene promoter reporter in chick embryo retinal cell neurogenic cultures E6; assay type: cell-based
Protocol: as §1

p38^MAPK = assay: Immunohistochemical staining with anti-active p38MAPK antibodies in neurogenic cultures; assay type: cell-based, chick; details: 100 ng/ml NGF for 20 minutes
Protocol: as §1

[2] = expression of E2F4-ND, 100 ng/ml NGF

C[S+]([O-])c1ccc(-c2nc(-c3ccncc3)c(-c3ccc(F)cc3)[nH]2)cc1 (stereo not drawn) [SB203580, reference compound]
effect on NGF-induced increase in the proportion of cells in S phase (BrdU) ([1]; 100 ng/ml NGF, inhibitor used at 5 μM): blocked
effect on NGF-promoted phosphorylation on threonine residues of E2F4 (E2F4; SB203580 used at 5 μM): inhibits such phosphorylation
effect on NGF-induced cMyc promoter activation (luciferase activity) (cMyc gene promoter; 100 ng/ml NGF, SB203580 used at 5 μM): blocked

E2F4-CA: constitutively active form of chicken E2F4 characterized by Thr261Glu/Thr263Glu substitutions
incorporation of BrdU ([1]; cells transfected with E2F4-CA): increases significantly
incorporation of BrdU ([1]; cells transfected with E2F4-CA in the presence of SB203580 5 μM): can be observed even in the presence
mimicking the effect of NGF on retinal neurons (cell cycle reactivation) ([1]; summary of FIG. 4A, FIG. 4B (luciferase and BrdU)): capable of mimicking the effect of NGF
cMyc promoter activity (luciferase activity) (cMyc gene promoter; expression of E2F4-CA in the presence of SB203580 5 μM): can be observed even in the presence
cMyc promoter activity (luciferase activity) (cMyc gene promoter; expression of E2F4-CA, transfected cells): induces cMyc promoter activity

E2F4-ND: negative dominant form of chicken E2F4 characterized by Thr261Ala/Thr263Ala substitutions, preventing phosphorylation by p38MAPK
effect of NGF on the incorporation of BrdU [1, 2]: prevents the effect
effect of NGF on the cell cycle in neurogenic retinal cultures ([1]; summary of FIG. 4C, FIG. 4D (luciferase and BrdU)): capable of inhibiting the effect of NGF
effect of NGF on cMyc promoter activity (luciferase activity) (cMyc gene promoter; [2]): prevents the effect

nerve growth factor [NGF]
incorporation of BrdU, proportion of cells in S phase ([1]; 100 ng/ml NGF): an increase in the proportion of cells in S phase
phosphorylation on threonine residues of E2F4 (E2F4): increase in phosphorylation on threonine residues
active p38MAPK (P-p38MAPK) signal in the nucleus (p38^MAPK): signal increase
luciferase activity (luciferase/β-galactosidase ratio), cMyc promoter (cMyc gene promoter; 100 ng/ml NGF): entails cMyc promoter activation
